The record followed here is ChEMBL document CHEMBL5537110, “SIRT1-dependent mitochondrial biogenesis supports therapeutic effects of 4-butyl-polyhydroxybenzophenone compounds against NAFLD” (Eur J Med Chem, 2023).

The target of assay [1] is T1, Peroxisome proliferator-activated receptor gamma coactivator 1-alpha (Homo sapiens) (UniProt Q9UBK2).
T1 sequence (whole entry): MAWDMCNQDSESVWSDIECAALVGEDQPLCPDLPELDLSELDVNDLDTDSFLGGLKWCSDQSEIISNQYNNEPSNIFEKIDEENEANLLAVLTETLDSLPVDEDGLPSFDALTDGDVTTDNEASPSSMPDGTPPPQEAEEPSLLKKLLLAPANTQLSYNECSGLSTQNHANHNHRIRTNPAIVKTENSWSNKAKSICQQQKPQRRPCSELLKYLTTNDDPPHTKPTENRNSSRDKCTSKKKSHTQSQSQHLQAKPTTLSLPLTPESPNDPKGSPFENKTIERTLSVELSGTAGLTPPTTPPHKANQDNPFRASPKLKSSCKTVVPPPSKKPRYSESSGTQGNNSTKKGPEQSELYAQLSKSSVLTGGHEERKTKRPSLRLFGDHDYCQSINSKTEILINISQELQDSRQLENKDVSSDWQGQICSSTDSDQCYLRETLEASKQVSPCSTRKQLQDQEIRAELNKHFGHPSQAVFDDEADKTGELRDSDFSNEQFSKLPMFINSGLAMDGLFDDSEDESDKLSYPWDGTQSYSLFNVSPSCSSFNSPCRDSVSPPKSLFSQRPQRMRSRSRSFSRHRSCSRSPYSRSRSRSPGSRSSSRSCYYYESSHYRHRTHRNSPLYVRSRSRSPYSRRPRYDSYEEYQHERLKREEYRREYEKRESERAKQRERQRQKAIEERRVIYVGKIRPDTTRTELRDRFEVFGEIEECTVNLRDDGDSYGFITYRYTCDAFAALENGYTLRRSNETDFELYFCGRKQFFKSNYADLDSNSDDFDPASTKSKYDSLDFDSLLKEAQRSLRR
Kind of assay: Binding affinity to PGC1alpha in human HepG2 cells assessed as increase in protein abundance at 80 to 320 uM pretreated with compound for 30 mins followed by proteolysis for 15 mins by DARTS assay. Type of assay: cell-based. The following applies: filed as activator, dose 80-320 µM, time 45.0 min.

Assay [2] concerns the target T2, Peroxisome proliferator-activated receptor gamma coactivator 1-alpha (Homo sapiens, UniProt Q9UBK2).
T2 sequence (Q9UBK2 whole entry): T1 sequence (whole entry)
Kind of assay: (§1) Binding affinity to PGC1alpha (unknown origin) by surface plasmon resonance assay.

In assay [3] the target is T1, Peroxisome proliferator-activated receptor gamma coactivator 1-alpha (Homo sapiens). The description is as §1. The following applies: filed as activator.
Assay [4] concerns HepG2. The assay is described as follows: Recovery of mitochondrial activity in 40% FBS-induced steatosis human HepG2 cells model assessed as increase in number of mitochondria incubated with compound for 24 hrs followed by replacement with steatosis inducing DMEM with 40% FBS medium by MitoTracker Green based fluorescence analysis. Type of assay: functional, cell-based. The following applies: dose 0.2-5 µM.

The subject of assay [5] is HepG2. The assay is described as follows: Inhibition of lipid toxicity in 40% FBS-induced steatosis human HepG2 cells model assessed as decrease in triglyceride content at 0.2 to 5 uM incubated in steatosis inducing DMEM with 40% FBS medium for 24 hrs followed by compound treatment. Type of assay: functional, cell-based. The following applies: dose 0.2-5 µM.
For assay [6], the system named is HepG2. The assay is described as follows: Induction of mitochondrial biogenesis in human HepG2 cells assessed as PGC1alpha mRNA expression incubated for 24 hrs in presence of SIRT1 inhibitor, EX527 by qRT-PCR analysis. Type of assay: functional, cell-based.
The test system of assay [7] is HepG2. The assay is described as follows: Inhibition of liver injury in 40% FBS-induced steatosis human HepG2 cells model assessed as decrease in ALT level at 0.2 to 5 uM incubated in steatosis inducing DMEM with 40% FBS medium for 24 hrs followed by compound treatment. Type of assay: functional, cell-based. The following applies: dose 0.2-5 µM.
Assay [8] deals with HepG2. The assay is described as follows: Inhibition of liver injury in 40% FBS-induced steatosis human HepG2 cells model assessed as increase in liver protection index by measuring increase in ratio of GSH to GSSG at 0.2 to 5 uM incubated in steatosis inducing DMEM with 40% FBS medium for 24 hrs followed by compound treatment. Type of assay: functional, cell-based. The following applies: dose 0.2-5 µM.

Assay [9] has as its system Rattus norvegicus. Kind of assay: Hepatoprotective activity against high fat diet-fed NAFLD Sprague-Dawley rat model assessed as decrease in serum gamma-GT level administered intragastrically via gavage for 4 weeks. Particulars: dose 12.3-61.4 mg/kg, route ig. Type of assay: functional, organism-based.
Assay [10] has as its system HepG2. The assay is described as follows: Recovery of mitochondrial biogenesis in 40% FBS-induced steatosis human HepG2 cells model assessed as increase in mitochondrial ND6 mRNA expression incubated for 24 hrs by qRT-PCR analysis. Type of assay: functional, cell-based. The following applies: dose 0.2-5 µM.
Assay [11] relates to HepG2. Kind of assay: Recovery of mitochondrial biogenesis in 40% FBS-induced steatosis human HepG2 cells model assessed as increase in TFAM mRNA expression incubated for 24 hrs by qRT-PCR analysis. Type of assay: functional, cell-based. The following applies: dose 0.2-5 µM.
The test system of assay [12] is HepG2. Kind of assay: Inhibition of oxidative stress in 40% FBS-induced steatosis human HepG2 cells model assessed as reduction in mitochondrial ROS production incubated in steatosis inducing DMEM with 40% FBS medium for 24 hrs followed by compound treatment by MitoSOX Red dye based fluorescence microscopy. Particulars: Mitochondria, dose 0.2-5 µM. Type of assay: functional, cell-based.

In assay [13] the test system is HepG2. The assay is described as follows: Inhibition of lipid toxicity in 40% FBS-induced steatosis human HepG2 cells model assessed as decrease in lipid accumulation at 0.2 to 5 uM incubated in steatosis inducing DMEM with 40% FBS medium for 24 hrs followed by compound treatment by Oil red O staining based analysis. Type of assay: functional, cell-based. The following applies: dose 0.2-5 µM.

The subject of assay [14] is Rattus norvegicus. Kind of assay: Hepatoprotective activity against high fat diet-fed NAFLD Sprague-Dawley rat model assessed as decrease in serum triglyceride content administered intragastrically via gavage for 4 weeks. The following applies: dose 12.3-61.4 mg/kg, route ig. Type of assay: functional, organism-based.
The target of assay [15] is T3, NAD-dependent protein deacetylase sirtuin-1 (Homo sapiens) (UniProt Q96EB6).
T3 sequence (whole entry): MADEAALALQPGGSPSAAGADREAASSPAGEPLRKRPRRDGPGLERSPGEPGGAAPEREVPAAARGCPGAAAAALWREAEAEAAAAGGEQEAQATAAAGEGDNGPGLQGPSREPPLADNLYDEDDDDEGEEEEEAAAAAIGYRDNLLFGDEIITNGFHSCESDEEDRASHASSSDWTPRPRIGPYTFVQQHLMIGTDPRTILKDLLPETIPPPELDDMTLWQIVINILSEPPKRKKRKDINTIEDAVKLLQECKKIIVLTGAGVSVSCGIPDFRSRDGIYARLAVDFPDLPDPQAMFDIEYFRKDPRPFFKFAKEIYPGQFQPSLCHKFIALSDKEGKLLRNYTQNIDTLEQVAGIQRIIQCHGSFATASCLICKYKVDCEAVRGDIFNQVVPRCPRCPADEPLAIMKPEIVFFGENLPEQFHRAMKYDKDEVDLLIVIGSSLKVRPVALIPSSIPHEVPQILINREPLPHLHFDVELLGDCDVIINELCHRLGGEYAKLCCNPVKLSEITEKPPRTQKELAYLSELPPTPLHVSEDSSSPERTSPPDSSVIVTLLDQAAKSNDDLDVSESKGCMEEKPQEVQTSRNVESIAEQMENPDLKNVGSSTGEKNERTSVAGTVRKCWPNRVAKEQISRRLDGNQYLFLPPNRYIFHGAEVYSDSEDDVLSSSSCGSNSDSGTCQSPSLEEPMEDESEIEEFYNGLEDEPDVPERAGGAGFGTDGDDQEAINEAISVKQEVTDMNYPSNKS
Kind of assay: Binding affinity to SIRT1 in human HepG2 cells assessed as increase in protein abundance at 80 to 320 uM pretreated with compound for 30 mins followed by proteolysis for 15 mins by DARTS assay. Type of assay: cell-based. The following applies: filed as activator, dose 80-320 µM, time 45.0 min.

The subject of assay [16] is HepG2. The assay is described as follows: Recovery of mitochondrial biogenesis in 40% FBS-induced steatosis human HepG2 cells model assessed as increase in mitochondrial COX1 protein expression incubated for 24 hrs by western blot analysis. Type of assay: functional, cell-based. Particulars: dose 0.2-5 µM.

Active and inactive are the calls of the source. The calls are words filed in the database; no cut-off is given here.

With `CC(C)(C)c1ccc(C(=O)c2ccc(O)c(O)c2)cc1`, the result (in assay [1]; in the assay with Rattus norvegicus [9]; in [15]) was Active. For the same compound, the affinity in [2], expressed as Kd, was 172 µM. The Activity result (in [3]; in the assay with HepG2 [4]; in the assay on HepG2 [10]; in the assay with HepG2 [11]; in the assay on Rattus norvegicus [14]; in the assay with HepG2 [16]) was “Dose-Dependent Effect” each time. For the same compound, the inhibition result in the assay on HepG2 [5], in the assay on HepG2 [7], with HepG2 [8] and in the assay on HepG2 [13] was “Active” each time. In addition, in the assay on HepG2 [6], the result was inactive. For the same compound, in the assay on HepG2 [12], the inhibition result is “Dose-Dependent Effect”.
